Patent publication US20240226041A1, “METHODS AND COMPOSITIONS FOR TREATMENT OF NEUROPATHIC PAIN USING STAT3 INHIBITORS” (priority 2021, published 2024)
Entries after “also recorded” stand apart in the source; their conditions may differ.

How the values were obtained:
male C57BL/6 mice [1] = test: Mechanical sensitivity (von Frey) in mice given TTI-101 alone; type: in vivo, mouse; details: 50 mg/kg i.p. every other day, 7 doses
Procedure: (§1) Data were analyzed by two-way ANOVA repeated measures. Time: P<0.001; Group: P<0.001; Interaction P<0.001. **P<0.01 Tukey multiple comparison test. Data are from a representative experiment out of two with similar results.
(§2) Peripheral neuropathy has been observed with several small-molecule STAT3 inhibitors in clinical-stage development (Bendell et al., 2014; Genini et al., 2017; Ogura et al., 2015). […] This model was selected because it was shown previously that it is mediated by mitochondrial damage in the peripheral nervous system (Krukowski et al., 2017; Maj, Ma, Krukowski, Kavelaars & Heijnen, 2017). […] (FIG. 12).
(§3) Pain measurements and chemotherapy-induced peripheral neuropathy (CIPN).

male C57BL/6 mice [2] = test: Cisplatin model of chemotherapy-induced peripheral neuropathy (CIPN), von Frey mechanical allodynia; type: in vivo, mouse; details: 50 mg/kg i.p. every other day
Procedure: as §1
Male C57/B16 mice (n=4 per group) were treated with cisplatin (two rounds of 5 daily doses of 2.3 mg/kg i.p. followed by 5 days of rest). […] Data were analyzed by two-way ANOVA repeated measures. Time: P<0.001; Group: P<0.001; Interaction P<0.01. **P<0.01 Tukey multiple comparison test.
as §2, §3

DRG transcriptome = test: RNA-seq and IPA analysis of dorsal root ganglia of cisplatin-treated mice; type: in vivo, mouse
From the text: Expression of 1,973 genes was changed in response to cisplatin when compared to the PBS mice (PBS vs. Cis; n=3 male mice per group). […] A cutoff of (−0.2<log 2 Fold Change <0.2) and p=0.1 was used for the analysis. […] Gray indicates effect cannot be predicted.
The mechanistic network of four regulators identified STAT3 as an intermediate regulator. […] For example, for the TP53 network, 14 regulators were part of the mechanistic network which together influence expression of 481 genes and out of these 481 genes, 64 target genes are controlled by STAT3.
RNA-seq and transcriptome analysis of dorsal root ganglion (DRG). […] Total RNA was isolated with the RNeasy MinElute Cleanup Kit (Qiagen, Hilden, Germany). Libraries were prepared with the Stranded mRNA-Seq kit (Kapa Biosystems, Wilmington, MA) following the manufacturer's guidelines. Stranded-mRNA seq was performed with a HiSeq4000 Sequencer (Illumina, San Diego, CA) with 76nt PE format by the RNA Sequencing Core at MD Anderson Cancer Center. Data analysis was performed as previously described (Chiu et al., 2018; Ma et al., 2019). Briefly, expression data of three samples per group were analyzed in R using bioconductor packages. STAR was used for alignment of paired-end reads to the mm10 version of the mouse reference genome; feature Counts was used to assign mapped sequence reads to genomic features, and DESeq2 was used to identify differentially expressed genes (padj<0.05). Quality check of raw and aligned reads was performed with FastQC and Qualimap. Next, we used Ingenuity Pathway Analysis (IPA; Qiagen Inc., https://www.qiagenbioinformatics.com/products/ingenuity-pathway-analysis/) for analysis of the canonical pathways implicated by cisplatin-induced transcriptome changes in DRG.

C57BL/6 mice = test: Example 3: mouse SNI model, pain behavior, barrier function, leukocyte infiltration, inflammatory mediators; type: in vivo
Procedure: SNI surgery is carried out in C57BL/6 mice as previously described. Analgesia is limited to perioperative administration of buprenorphine SR (0.05 mg/kg SQ). […] Animals then are examined for behavioral pain sensitivity. Plantar mechanical sensitivity is assessed using hind paw stimulation with von Frey filaments. Frequency of hindlimb withdrawal in response to application of filaments of increasing force is used as a readout of mechanical sensitivity. Plantar cold sensitivity is tested using the plantar cold assay, in which hindpaw withdrawal in response to a cooling source is used as a readout of cold sensitivity. Testing is carried out after habituation at baseline (prior to surgery), then once weekly for 8 weeks following surgery. Daily testing of von Frey and cold sensitivity is carried out during the TTI-101 treatment window. Additional behavioral testing occurs weekly to more extensively validate analgesic efficacy and functional recovery. The mechanical conflict-avoidance (MCA) test uses a chamber of blunt probes to measure aversion to hindpaw mechanical stimuli and serves as an additional assessment of mechanical sensitivity. Plantar cold sensitivity is measured using the thermal gradient ring assay, which uses a temperature gradient to measure temperature preference/aversion. Finally, paw placement and other gait parameters are assessed using digital gait analysis (Catwalk XT) and a burrowing activity assay (spontaneous clearing of bedding material from a tube). […] All experiments are performed by observers blinded to the genotype and drug formulation administered. This additional behavioral testing is done from baseline (8 weeks)—prior to nerve injury—then weekly thereafter until 16 weeks of age. Mice are euthanized humanely by cardiac puncture and necropsy performed to remove the contralateral and ipsilateral sciatic nerves (SN) and dorsal root ganglia (DRG). […] Anticoagulated blood at both time points is used to measure levels of pro- and anti-inflammatory cytokines, including IL-4, IL-6, IL-10, IL-13, TGF-β and IFN-γ by Luminex. One portion of each SN and DRG is snap-frozen and another portion placed in formalin, then paraffin imbedded (FFPE). Cryotome sections of snap-frozen tissues are used to generate protein lysates for measurement of pY-STAT3, IL-1B and IL-6 by Luminex and Western blotting. […] Snap-frozen tissues are processed to isolate RNA for RNA sequencing (RNA-seq) analysis. Microtome sections of FFPE blocks are H&E stained and undergo immunohistochemistry staining and scoring for pY-STAT3, CD68 (macrophages), PGP9.5 (sensory nerves) and GAP43 (regenerating nerves). Detection of oxidative stress in sciatic nerve and DRG via IHC for nitrotyrosine, 4-hydroxynonenal and MnSOD is carried out. Vascular endothelium permeability in nerve is determined by quantifying the extravasation of the fluorescent dye sodium fluorescein. Cross-sections of the nerve are quantified using the EVOS fluorescence microscope, and mean fluorescence intensity and the percent area positive are determined using NIH ImageJ software. In a subset of mice, characterization of SN and DRG macrophage phenotype are analyzed using flow cytometry with conjugated antibodies against CD86, F4/80, CD163 and CD206.

rats = details: rat, in vivo; cited from earlier work
dogs = details: dog, in vivo; cited from earlier work
[3] = Cis+TTI-101 vs. cisplatin alone
[4] = 100 mg/kg oral gavage daily for 5 days

## COc1ccc(S(=O)(=O)Nc2cc(-c3c(O)ccc4ccccc34)c(O)c3ccccc23)cc1 [TTI-101]
Male C57BL/6 mice [1]
  mechanical sensitivity / mechanical allodynia caused by compound alone: had no effect on mechanical sensitivity; also recorded: does not cause mechanical allodynia
Male C57BL/6 mice [2]
  dose after which maximal inhibition of allodynia was obtained: after the 4th dose
Male C57BL/6 mice [2]; 7 doses
  time after last dose at which mechanical allodynia returned to levels of cisplatin alone: 4 days
Male C57BL/6 mice [2]; 7 doses, after two cycles of cisplatin 2.3 mg/kg
  cisplatin-induced mechanical allodynia: markedly reduced; also recorded: reverses mechanical allodynia caused by cisplatin
DRG transcriptome; [3]
  genes down in DRG: 1,416 genes
  genes up in DRG: 297 genes
DRG transcriptome; Cis+TTI-101 vs. cisplatin alone, 4 hours after fourth dose
  genes with changed expression in DRG: 1,713 genes
DRG transcriptome; PBS vs. Cis and Cis vs. Cis+TTI-101
  genes altered in both groups with overall opposite expression pattern (normalized): 443 genes
DRG transcriptome; TTI-101 vs. PBS
  genes with changed expression in DRG: 2,154 genes
DRG transcriptome; cisplatin-treated mice receiving TTI-101
  VEGF signaling (IPA comparison analysis): inhibited
DRG transcriptome; upstream regulator analysis of 1,713 DEG
  STAT3 activity in IPA mechanistic networks: reduced in all networks
C57BL/6 mice; [4]
  antalgic gait patterns/burrowing aversion: net reduction
  macrophage infiltration of SN and DRG: net reduction
  mechanical and cold hypersensitivity: net reduction
  plasma and tissue levels / pY-STAT3 in macrophages in SN and DRG: achieves levels in the plasma and tissue adequate to reduce levels of pY-STAT3
C57BL/6 mice; SN and DRG
  RNA-seq gene signatures: shifts RNA-seq gene signatures toward a net promotion of M2-like macrophage polarization, improved tight junction/barrier formation, reduced ROS production, and circulating pro-inflammatory markers
rats
  serious toxicity including lactic acidosis: did not demonstrate any serious toxicity including lactic acidosis
dogs
  serious toxicity including lactic acidosis: did not demonstrate any serious toxicity including lactic acidosis
